Source: publication PMC5618791, “Double quick, double click reversible peptide “stapling”” (Chemical Science, 2017)
Positions of bridges follow the written chain, without caps; N, C: chain ends. Residues, ends and D or L forms follow the SMILES beside them.

Legend:
[1] = Circular dichroism, % helicity; format: physicochemical; conditions: CD, peptide 10-20 μM, calculated from MRE at 222 nm
Experimental: Samples were prepared in two different solvent systems (30% TFE:H2O, 30% CH3CN:water) to concentrations between 10 - 20 μM (Figure S 23). Considering the high number of hydrophobic residues in BID and S peptides, organic co-solvents were used to ensure good solubility and avoid aggregation at concentrations high enough for CD analyses. DMSO stocks of peptides were not used for CD due to its high absorbance below 230 nm.
The raw circular dichroism data obtained for the peptides was processed by the subtraction of the solvent signal and converted into a mean residue ellipticity:
Where = molar ellipticity[θ]MRE per residue, θ = circular dichroism at a given wavelength, c = molar concentration, l = path length in cm, R = number of residues in the peptide sequence.
Calculation of % helicity was performed by the following equation:[4]
Where: θH = Theoretical MRE for 100% helicity at 222 nm, θ0 = Theoretical MRE for 100% helicity at 222 nm at 0 °C = –44000, (∂θ/∂T) = temperature dependence of infinite helix = +250, T = temperature in °C, x = 3, Nr = number of residues in the peptide.
In both solvent systems, it is noteworthy that STA-peptides are more helical than RED-peptides or WT-peptides; with the exception of constrained S-Cys-peptides. The use of TFE as co-solvent in water enhances the α-helicity of both series of peptides compared to the use of acetonitrile in water. […]
thus bioactive) conformation. The S peptides show a low helix propensity which is consistent […]
Figure S 23: CD spectra A. and B. in 30% TFE:H 2O; C. and D. in 30% CH3CN:H 2O.
Table 1: Percentage of helicity in the three solvent systems […]
(also on this page, place not known: Molar residue ellipticity (deg.cm 2 .dmol -1 ) Molar residue ellipticity (deg.cm 2 .dmol -1 ) Molar residue ellipticity (deg.cm 2 .dmol -1 ) Molar residue ellipticity (deg.cm 2 .dmol -1 ) TFE:H2O; CH3CN:H2O.)

RNase S protein = biological target: T1, RNase S protein (Bos taurus, UniProt P61823); assay: RNA degradation assay, restoration of S protein activity; format: biochemical; conditions: EtBr-labelled RNA, S peptides 0.1-2 μM, 50 mM Tris, 100 mM NaCl, pH 7.50, 60 min, room temperature, fluorescence, triplicate
T1 construct: S protein 21-124; made in house; host or cells: proteolytic fragment of RNase A (subtilisin digestion)
T1 sequence (P61823 47-150): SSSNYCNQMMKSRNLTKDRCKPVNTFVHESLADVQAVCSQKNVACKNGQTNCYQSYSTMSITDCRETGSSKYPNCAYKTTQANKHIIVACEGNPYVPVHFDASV
Experimental: Fig. 5 Biophysical and bioactivity analyses of WT-S and S derived peptides 3–4a,c. (a) Circular dichroism spectra recorded in water (30% TFE); (b) RNA degradation assay showing the restoration of S protein activity. S protein was used as a negative control, and RNase A as a positive control. (50 mM Tris, 100 mM NaCl, pH 7.50).
RNase A (10 mg) in Hepes (600 µL, 100 mM; pH = 8.0) was digested by subtilisin (5 mg/mL, 10 µL) for 4 hrs at 0 °C. After which, the buffer was acidified with a solution of HCl (1 M) to reach pH = 3. The acidic solution was stirred for 1 h at 2 °C. The reaction was monitored by HPLC using the Jupiter µ Proteo 90 A analytical column using a gradient (0-60% over 30 min). […]
RNA degradation assays were performed in 96-well black plates (Greiner Bio-one). Each experiment was run in triplicate and the fluorescence was measured using a Perkin Elmer EnVisionTM 2103 MultiLabel plate reader, with an excitation and emission at 510 nm and at […]
The buffer used in this enzymatic assay was Tris buffer (50 mM of Tris, 100 mM of NaCl, pH = 7.5). The adequate quantity of buffer was first added to each well to reach a total volume of 200 µL (150 µL for controls, 149 µL for 0.1 µM of S peptides, 148 µL for 0.2 µM of S peptides, 145 µL for 0.5 µM of S peptides, 140 µL for 1 µM of S peptides, 130 µL for 2 µM of S peptides). […]

Percentage of helicity, 30% CH3CN:H2O ([1]; 30% CH3CN:H2O): 0% | Percentage of helicity, 30% TFE:H2O ([1]; 30% TFE:H2O): 0% | Restoration of S protein (RNase) enzymatic activity (RNase S protein): failure to restore S protein activity
SMILES: CSCC[C@H](NC(=O)[C@H](Cc1c[nH]cn1)NC(=O)[C@H](CCC(N)=O)NC(=O)[C@@H]1CSSC[C@H](NC(=O)[C@H](C)NC(=O)[C@H](C)NC(=O)[C@@H](NC(=O)[C@H](CCC(=O)O)NC(=O)[C@H](CCCCN)NC(C)=O)[C@@H](C)O)C(=O)N[C@@H](CCCCN)C(=O)N[C@@H](Cc2ccccc2)C(=O)N[C@@H](CCC(=O)O)C(=O)N1)C(=O)N[C@@H](CC(=O)O)C(=O)N[C@@H](CO)C(N)=O [2c] (Ac-KETAACKFECQHMDS-NH2; disulfide 6-10)
